# Experimental data published in patent US20150110847A1, “Substrate Mediated Enzymes Prodrug Therapy” (Aarhus Universitet, priority 2012, published 2015).
# Like-named read-outs stand apart in the source and are kept apart here.
# Assays:
# [1] = system: HepG2; test: Cellular internalization of in situ generated fluorescent product, flow cytometry (FIG. 4); type: cell-based; conditions: for levels of cellular fluorescence (cargo internalization): enzyme in μS PVA hydrogel, versus solution based conversion; for levels of cellular fluorescence (cargo internalization) / fluorescence of cultured cells: 2.5 μg/mL, 24 h; for fluorescence of cultured cells: prodrug in absence of the enzyme
# Procedure: FIG. 4. Utility of SMEPT in generation and cellular internalization of in situ produced product is verified through quantification of fluorescence of hepatic cells cultured on the μS PVA hydrogels. […] Experimental conditions: (A) 1 g/L enzyme in the polymer solution; initial concentration of fluorescein diglucuronide, 2.5 μg/mL; incubation time 24 h; (B) 1 g/L enzyme in the polymer solution; initial concentration of fluorescein diglucuronide 0.25 (top) and 0.025 (bottom) […].
# Towards this goal, hydrogels were prepared using solutions of PVA supplemented with a synthetic polypeptide, poly-L-lysine (PLL). […] Enzyme- and PLL-containing PVA hydrogels were assembled as described above, after which time μS thin films were used as substrates for adhesion and proliferation of a model cell line, HepG2. […] Furthermore, advanced efforts in engineering of liver tissue require co-culturing of mammalian cells (e.g. hepatocytes and Kupffer cells), a challenge which is successfully addressed using μS and micro-patterned substrates. These notions together justify the use of a hepatic cell line and μS PVA hydrogels for the development of SMEPT.
# Initial, internalization of a fluorescent reporter molecule produced via SMEPT and via a solution-based conversion was compared. To achieve this, the cells were seeded on μS PVA hydrogels and were allowed 24 h for attachment, after which time the media was changed to fresh media and, for solution based prodrug conversion, equivalent amount of the enzyme as that contained within μS PVA hydrogels was administered to the cultured cells. At this point, the samples were charged with fluorescein di-glucuronide to a 2.5 μg/mL concentration (3.65 μM). Upon 24 h incubation, fluorescence of the harvested cells was quantified using flow cytometry. […] We note that solution based prodrug conversion is used herein only as a measure to verify protein activity and utility of SMEPT. In the human body, β-glucuronidase has a limited spread and an activity markedly lower as compared to bacterial copy used in this study. The latter notion provides for a low level of “background” prodrug conversion and contributes to specificity of drug delivery achieved with the use of β-glucuronidase and glucuronide prodrugs, as documented for ADEPT and inherited by SMEPT.
# For further characterization of SMEPT, the time course of cellular internalization of the in situ generated fluorescent reporter product was followed at two concentrations of the fluorogenic pro-drug, 0.025 and 0.25 μg/mL (36.5 and 365 nM, respectively). At specified time points, fluorescence of the detached cells was quantified using flow cytometry, FIG. 19B. […] Further to this, at each time point, higher pro-drug concentration affords a higher level of fluorescence registered in the cultured cells, i.e. a greater amount of internalized cargo. Together, these two graphs present time- and dose-dependent internalization of reporter cargo and illustrate the tools of control offered by SMEPT for substrate mediated drug delivery.
# [2] = target: T1, b-glucuronidase (Escherichia coli, UniProt P05804); test: Prodrug conversion in flow by biocatalytic LbL films in perfusion chambers (FIG. 23); type: biochemical; conditions: constant flow
# T1 construct: purchased
# Procedure: For evaluation of the enzymatic activity the prodrug fluorescein di-glucuronide, FdG, of 5 μg/mL was added to syringes and connected to the coated perfusion chambers. A syringe pump was used to control the shear stress using 0.15, 0.074, 0.03 dyn/cm^2. An “on demand” conversion of prodrug under flow conditions a syringe with buffer was used as a control. The “on” and “off” was then controlled by the switch of syringes to the given μ-slide chamber.
# For multiple layers of enzyme the PEMs were constructed as (PMA/PLL)4 keeping the total amount of layers constant and adding the enzyme in between each layer of PLL.
# All evaluations were measured out on the PlateReader by collecting aliquots from the outlet tubing during the experiment and transferred to a 96-well pate.
# A unique opportunity associated with multilayered surface coatings relates to the possibility to build films with a desired thickness for which polymer adsorption can be performed to a desired number of layers. Similarly, LbL deposition would allow controlling the amount of enzyme within the thin film through a facile change in the number of protein deposition steps. To show this, polymer coatings were assembled using one or three layers of adsorbed β-Glu keeping the total number of polymer layers constant. […] While a single layer of the enzyme achieved a <[…] concentration of the product, three protein layers suffice for a build-up of product concentration to over 30 nM, all achieved under dynamic, constant flow conditions.
# [3] = system: HepG2; test: SMEPT using static cell culture on LbL films, PrestoBlue cell viability (FIG. 21)
# Procedure: Glass cover-slips. LbL assembly of PMA and PLL with incorporated enzyme was performed on glass cover-slips to evaluate the therapeutic effect of SN-38 under static conditions. Glass cover slips of 9 mm were sonicated in ethanol for 10 minutes, rinsed with ultrapure water, and dried with argon prior to UV sterilization for 20 minutes in a 48 well plate. Solutions of PLL and PMA, were incubated at 37° C. for 10 min prior to film assembly. Alternating layers were composed as (PLL/PMA)2.5-b-glucuronidase-(PMA/PLL)2 or […] for films without enzyme. Each layer was allowed to adsorb for 10 min at 37° C. followed by a washing step in HEPES buffer. The enzyme b-glucuronidase was added at a concentration of 20 μg/mL in HEPES buffer solution.
# (§1) Cell Culture. The hepatocellular carcinoma cell line (HepG2) was used for all cell experiments. HEPG2 were cultured in a 75 cm^2 culture flask (3E6 cells/flask) in 10 mL medium (Minimum Essential Medium Eagle (MEME) supplemented with 10% fetal bovine serum (FCB), 1% penicillin and streptomycin, 1% non-essential amino acids, and 2 mM L-glutamine) and incubated at 37° C. and 5% CO2.
# Static cell culture. The LbL coated glass slides were UV sterilized for 10 minutes prior to cell seeding. HepG2 cells with a starting density of 75.000 cells in 300 μL were seeded per well. The cells were allowed to adhere overnight before adding the (pro)drug SN-38 of 1 μM and incubate for 48 h. 200 μL of fresh media was added together with 20 μL of PrestoBlue cell viability reagent and evaluated on an EnspireMultilabel Plate Reader after 30 minutes of incubation.
# A glucuronide prodrug of a commercial anticancer drug, SN-38, was used. […] Further, hepatocellular carcinoma (HCC) is a condition successfully addressed using tools for localized drug delivery, but solitary drugs are currently accommodated for this mode of delivery.
# Hepatocytes were seeded on the biocatalytic film (PLL/PMA)2.5/β-Glu/(PGA/PMA)2 and allowed to adhere overnight before refreshing the media and adding the (pro)drug at 1 μM.
# [4] = system: HepG2
# Procedure: as §1
# [5] = system: HepG2; test: Cell viability in three sequentially connected perfusion chambers, site-specific delivery (FIG. 25); type: cell-based; conditions: for viability of cells reduced to: 1 μM, 4 h flow, further 48 h culture
# Description: For the evaluation of drug delivery to subsequent chambers tubings were connected so that the flow of solution would enter the first chamber containing PEMs with enzyme and subsequent flow to chamber 2 and chamber 3 with cell culture on TCPS.
# It is assumed that when the drug is synthesized within the coating immediately underneath the cultured cells, through increased local concentration of the drug, the synthesized therapeutic would exert a higher local effect in adhering cells as compared to the cells growing “downstream”. […] Outlet from chamber 1 was connected to the inlet for chamber 2, and in turn, outlet of chamber 2 was connected to the inlet of chamber 3. Hepatocytes were seeded in all three chambers, but only the cells in chamber 1 were cultured on biocatalytic coatings. Solution of SN-38 glucuronide (1 μM in cell culture media) was administered to the interconnected perfusion chambers at constant shear stress for 4 h. Subsequently, the perfusion chambers were flushed with (pro)drug-free media and the cells were cultured for a further 48 h, prior to the assessment of the cell viability.
# The viability of cells cultured on biocatalytic coatings was reduced to ˜30% verifying a pronounced therapeutic response achieved via SMEPT under flow conditions. Viability of cells in chamber two was reduced to ˜60% thus being much higher than that for cells cultured on biocatalytic coatings. Taking into account dose response of HepG2 cells to SN-38, viability difference between 30% and 60% corresponds to ˜10-fold difference in the concentration of the drug used for the treatment. […] It is therefore highly likely that local therapeutic effect would exceed that at “downstream” location to a greater extent than illustrated in FIG. 25. Our data provide experimental proof of the site-specific drug delivery achieved via SMEPT and thus, illustrate therapeutic advantage associated with this technique.
# [6] = system: cells cultured on μS PVA; test: Viability of cells on μS PVA hydrogels with enzyme and/or prodrug (FIG. 17); type: cell-based; conditions: full SMEPT conditions: μS PVA with immobilized enzyme and 1 μM SN-38 glucuronide
# Description: FIG. 17: Viability of cells on μS hydrogels with enzyme and/or prodrug.
# [7] = system: HepG2; conditions: previously shown by the applicants; cited from earlier work
# [8] = system: b-Galactosidase
# Procedure: Microstructured PVA hydrogels were assembled using polymer solutions containing b-Galactosidase (1 g/L), stabilized using 0.5 M sodium sulfate and incubated in PBS for 1 h prior analysis. We used a substrate for b-Gal conversion of which affords nitric oxide (NO), a potent and multi-functional signaling and therapeutic molecule. This radical—molecule has a very short half-life and is rapidly converted into nitrite/nitrate, and the latter are conventionally used to quantify the levels of generated nitric oxide. Analysis of nitrite is conducted via a Griess assay, i.e. a colorimetric test establishing a linear correlation between the concentration of nitrite and absorbance at 530 nm; cf. FIG. 31.
# b-Gal-NONOate was administered onto the enzyme-functionalized hydrogels at varied concentrations and incubated for 30 min, upon which the levels of […] were quantified via the Griess assay.
# T1 sequence (P05804 whole entry, the tested form may be a part): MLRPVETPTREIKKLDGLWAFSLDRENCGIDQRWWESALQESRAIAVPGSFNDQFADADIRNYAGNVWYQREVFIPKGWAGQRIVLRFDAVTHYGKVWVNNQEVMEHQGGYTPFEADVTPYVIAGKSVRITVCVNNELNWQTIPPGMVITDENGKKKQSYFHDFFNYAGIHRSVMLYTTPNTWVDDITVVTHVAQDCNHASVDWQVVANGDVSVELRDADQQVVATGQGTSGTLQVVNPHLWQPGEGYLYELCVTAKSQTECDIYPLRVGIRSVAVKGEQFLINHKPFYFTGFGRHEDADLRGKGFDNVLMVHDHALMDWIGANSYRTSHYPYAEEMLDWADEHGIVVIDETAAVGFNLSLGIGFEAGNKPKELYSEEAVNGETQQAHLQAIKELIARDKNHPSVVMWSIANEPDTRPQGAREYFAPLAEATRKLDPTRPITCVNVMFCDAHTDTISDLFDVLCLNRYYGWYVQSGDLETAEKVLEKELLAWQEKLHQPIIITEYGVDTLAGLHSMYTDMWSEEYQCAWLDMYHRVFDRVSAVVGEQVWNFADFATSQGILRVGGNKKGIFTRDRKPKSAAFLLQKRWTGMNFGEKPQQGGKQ
structure (smiles),measurement,setting,value
O=C1OC2(c3ccc(O[C@@H]4O[C@H](C(=O)O)[C@@H](O)[C@H](O)[C@H]4O)cc3Oc3cc(O[C@@H]4O[C@H](C(=O)O)[C@@H](O)[C@H](O)[C@H]4O)ccc32)c2ccccc21 [fluorescein di-glucuronide],fluorescence of cells over time,"[1]; SMEPT, 0.025 and 0.25 μg/mL, earliest time-point 1 h",pronounced increase in the fluorescence of cells
same,levels of cellular fluorescence (cargo internalization),[1]; SMEPT,comparable to that produced by a solution based administration
same,levels of cellular fluorescence (cargo internalization),"[1]; SMEPT, listed as fluorescein diglucuronide",comparable levels of fluorescence of cultured cells
same,fluorescence of cultured cells,[1],"fluorescence identical to pristine, non-treated cells"
same,fluorescence of cultured cells,[1]; listed as fluorescein diglucuronide,negligible change in the fluorescence of cultured cells
same,"amount of product synthesized in unit time, 3 versus 1 layers of adsorbed protein",[2]; identical prodrug concentration,approximately 3 ×
same,concentration of the product,[2]; single layer of the enzyme,< 10 nm
same,concentration of the product,[2]; three protein layers,over 30 nM
CCc1c2c(nc3ccc(O)cc13)-c1cc3c(c(=O)n1C2)COC(=O)[C@]3(O)CC [SN-38],reduction in viability of the hepatocytes compared with SMEPT,[3],similar
same,cell culture time required for a well-pronounced therapeutic effect,[4],at least 48 h
same,time the presence of the drug was required for a pronounced therapeutic effect,[4],≥ 4 h
same,difference in the concentration of the drug corresponding to viability difference between 30% and 60%,[5]; from dose response of HepG2 cells to SN-38,~10 fold
CCc1c2c(nc3ccc(O[C@@H]4O[C@H](C(=O)O)[C@@H](O)[C@H](O)[C@H]4O)cc13)-c1cc3c(c(=O)n1C2)COC(=O)[C@]3(O)CC [SN-38 glucuronide],cytotoxic effect (viability of cells),[6],cytotoxic effect which is comparable to the active drug SN-38
same,cell viability reduced by,"[3]; SMEPT: hepatocytes on β-Glu-containing LbL film, 1 μM, 48 h incubation, compared to control",~80%
same,change in cell viability,"[3]; prodrug on (PLL/PMA)4.5 coatings, no enzyme incorporated, 1 μM, 48 h",minor albeit statistically significant decrease in the cell viability
same,reduction in viability of the hepatocytes compared with SMEPT,"[3]; solution based EPT: prodrug and enzyme both in solution, enzyme-free LbL films, 1 μM, 48 h",similar
same,decrease in cell viability by,"[4]; 1 μM, 4 h flow on biocatalytic film, then static drug-free culture, total 48 h, normalized to cells without (pro)drug",~70%
same,viability of cells reduced to,"[5]; chamber 1, cells on biocatalytic coatings",~30%
same,viability of cells reduced to,"[5]; chamber two, downstream, no biocatalytic coating",~60%
same,inherent cytotoxic effects on hepatocytes,[7],did not have an inherent cytotoxic effects on hepatocytes
[O-]/[N+](=N\O[C@@H]1O[C@H](CO)[C@H](O)[C@H](O)[C@H]1O)N1CCCC1 [b-Gal-NONOate],prodrug conversion/drug production of NO,[8]; absence of enzyme,no prodrug conversion/drug production of NO is observed
same,administered dose converted,"[8]; within 30 min of incubation, b-Galactosidase PVA hydrogels",approximately 50%
